Measured values as given in ChEMBL document CHEMBL3621161, “Conformationally restrained carbamoylcholine homologues. Synthesis, pharmacology at neuronal nicotinic acetylcholine receptors and biostructural considerations” (Eur J Med Chem, 2015).
Active and inactive are the calls of the source. The rule behind the calls is not given here.

How the values were obtained:
[1] = biological target: Neuronal acetylcholine receptor; alpha4/beta2 (Rattus norvegicus, UniProt P09483+P12390); test: Displacement of [3H]epibatidine from rat neuronal acetylcholine receptor subunit alpha4beta2 expressed in HEK293 cell membranes incubated for 4 hrs by scintillation counting method
[2] = biological target: Neuronal acetylcholine receptor; alpha4/beta4 (Rattus norvegicus, UniProt P09483+P12392); test: Displacement of [3H]epibatidine from rat neuronal acetylcholine receptor subunit alpha4beta4 expressed in HEK293 cell membranes incubated for 4 hrs by scintillation counting method
[3] = biological target: T1, Neuronal acetylcholine receptor; alpha3/beta4 (Rattus norvegicus, UniProt P04757+P12392); test: Displacement of [3H]epibatidine from rat neuronal acetylcholine receptor subunit alpha3beta4 expressed in HEK293 cell membranes incubated for 4 hrs by scintillation counting method; details: for pKi: hek293
[4] = biological target: T1, Neuronal acetylcholine receptor; alpha3/beta4; test: Agonist activity at rat neuronal acetylcholine receptor subunit alpha3beta4 expressed in HEK293 cells at 1 mM by FMP assay; format: cell-based; details: for pEC50: hek293
[5] = biological target: Neuronal acetylcholine receptor subunit alpha-4/beta-2 (Mus musculus) (UniProt Q9ERK7+O70174); test: Agonist activity at mouse neuronal acetylcholine receptor subunit alpha4beta2 expressed in HEK293T cells at 300 uM by FMP assay; format: cell-based; details: HEK-293T
[6] = biological target: T1, Neuronal acetylcholine receptor; alpha3/beta4; test: Agonist activity at rat neuronal acetylcholine receptor subunit alpha3beta4 expressed in HEK293 cells by FMP assay; format: cell-based
[7] = biological target: Neuronal acetylcholine receptor subunit alpha-4/beta-2 (Mus musculus, UniProt O70174+Q9ERK7); test: Agonist activity at mouse neuronal acetylcholine receptor subunit alpha4beta2 expressed in HEK293T cells by FMP assay; format: cell-based, HEK-293T
[8] = biological target: Neuronal acetylcholine receptor; alpha3/beta4 (Rattus norvegicus) (UniProt P04757+P12392); test: Agonist activity at rat neuronal acetylcholine receptor subunit alpha3beta4 expressed in HEK293 cells at 300 uM by FMP assay; format: cell-based

Sequence of Neuronal acetylcholine receptor; alpha4/beta4 (P09483 whole entry): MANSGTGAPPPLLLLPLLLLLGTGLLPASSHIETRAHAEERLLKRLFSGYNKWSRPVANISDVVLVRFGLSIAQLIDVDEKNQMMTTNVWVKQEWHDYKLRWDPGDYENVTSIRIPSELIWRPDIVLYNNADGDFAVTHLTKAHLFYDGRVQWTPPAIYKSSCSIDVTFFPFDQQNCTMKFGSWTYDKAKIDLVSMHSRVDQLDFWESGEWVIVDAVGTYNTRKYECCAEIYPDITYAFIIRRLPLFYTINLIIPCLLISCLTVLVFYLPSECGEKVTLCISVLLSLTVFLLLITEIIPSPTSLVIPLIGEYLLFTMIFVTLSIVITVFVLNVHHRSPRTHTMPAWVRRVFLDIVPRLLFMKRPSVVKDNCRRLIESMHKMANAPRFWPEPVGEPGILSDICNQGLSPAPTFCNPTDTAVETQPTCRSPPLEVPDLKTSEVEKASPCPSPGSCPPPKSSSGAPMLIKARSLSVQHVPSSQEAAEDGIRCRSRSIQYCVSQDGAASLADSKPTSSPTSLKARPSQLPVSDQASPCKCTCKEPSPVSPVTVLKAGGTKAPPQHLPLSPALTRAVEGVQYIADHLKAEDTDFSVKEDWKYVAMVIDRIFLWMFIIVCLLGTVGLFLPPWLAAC
Sequence of Neuronal acetylcholine receptor; alpha4/beta4 (P12392 whole entry): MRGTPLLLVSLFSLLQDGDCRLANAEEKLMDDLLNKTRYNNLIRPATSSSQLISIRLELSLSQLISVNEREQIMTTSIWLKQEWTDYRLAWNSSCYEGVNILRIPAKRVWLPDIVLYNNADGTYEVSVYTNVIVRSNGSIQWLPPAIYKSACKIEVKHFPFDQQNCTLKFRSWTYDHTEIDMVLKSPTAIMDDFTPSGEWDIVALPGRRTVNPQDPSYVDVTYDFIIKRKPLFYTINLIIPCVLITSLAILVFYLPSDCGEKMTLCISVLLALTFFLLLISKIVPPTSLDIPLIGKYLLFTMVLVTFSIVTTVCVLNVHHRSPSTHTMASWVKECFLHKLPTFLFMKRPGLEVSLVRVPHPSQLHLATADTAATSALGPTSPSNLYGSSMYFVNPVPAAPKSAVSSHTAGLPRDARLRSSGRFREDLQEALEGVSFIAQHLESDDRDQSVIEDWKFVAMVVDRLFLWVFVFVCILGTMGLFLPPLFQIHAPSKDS
Sequence of Neuronal acetylcholine receptor; alpha4/beta2 (P09483 whole entry): as the sequence (P09483 whole entry) above
Sequence of Neuronal acetylcholine receptor; alpha4/beta2 (P12390 whole entry): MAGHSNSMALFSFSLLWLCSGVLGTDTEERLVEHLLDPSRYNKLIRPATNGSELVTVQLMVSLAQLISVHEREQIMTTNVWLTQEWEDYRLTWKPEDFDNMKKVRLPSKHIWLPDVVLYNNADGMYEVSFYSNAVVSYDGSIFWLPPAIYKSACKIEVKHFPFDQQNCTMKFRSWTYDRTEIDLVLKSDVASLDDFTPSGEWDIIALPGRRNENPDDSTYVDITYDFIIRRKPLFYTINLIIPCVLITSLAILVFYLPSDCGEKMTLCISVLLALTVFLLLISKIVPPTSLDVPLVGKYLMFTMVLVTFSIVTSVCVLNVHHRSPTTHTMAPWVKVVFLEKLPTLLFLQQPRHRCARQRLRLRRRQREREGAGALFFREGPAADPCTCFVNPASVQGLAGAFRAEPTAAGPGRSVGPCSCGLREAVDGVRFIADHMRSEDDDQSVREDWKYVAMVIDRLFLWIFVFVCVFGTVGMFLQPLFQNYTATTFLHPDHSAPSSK
T1 sequence (P04757 whole entry): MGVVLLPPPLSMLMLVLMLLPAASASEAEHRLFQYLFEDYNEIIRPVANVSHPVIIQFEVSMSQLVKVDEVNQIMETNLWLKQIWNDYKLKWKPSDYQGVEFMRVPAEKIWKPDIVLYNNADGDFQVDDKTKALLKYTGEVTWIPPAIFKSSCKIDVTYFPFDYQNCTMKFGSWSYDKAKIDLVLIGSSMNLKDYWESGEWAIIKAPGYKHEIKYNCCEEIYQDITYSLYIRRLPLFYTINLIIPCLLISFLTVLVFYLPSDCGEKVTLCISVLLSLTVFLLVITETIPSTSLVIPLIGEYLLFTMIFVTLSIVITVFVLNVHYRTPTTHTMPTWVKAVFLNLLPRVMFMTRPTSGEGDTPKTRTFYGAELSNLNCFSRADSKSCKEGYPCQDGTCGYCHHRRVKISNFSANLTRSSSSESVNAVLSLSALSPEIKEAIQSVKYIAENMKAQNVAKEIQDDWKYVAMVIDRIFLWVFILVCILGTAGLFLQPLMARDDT
T1 sequence (P12392 whole entry): as the sequence (P12392 whole entry) above
Sequence of Neuronal acetylcholine receptor subunit alpha-4/beta-2 (Mus musculus) (O70174 31-629 partner limits assumed): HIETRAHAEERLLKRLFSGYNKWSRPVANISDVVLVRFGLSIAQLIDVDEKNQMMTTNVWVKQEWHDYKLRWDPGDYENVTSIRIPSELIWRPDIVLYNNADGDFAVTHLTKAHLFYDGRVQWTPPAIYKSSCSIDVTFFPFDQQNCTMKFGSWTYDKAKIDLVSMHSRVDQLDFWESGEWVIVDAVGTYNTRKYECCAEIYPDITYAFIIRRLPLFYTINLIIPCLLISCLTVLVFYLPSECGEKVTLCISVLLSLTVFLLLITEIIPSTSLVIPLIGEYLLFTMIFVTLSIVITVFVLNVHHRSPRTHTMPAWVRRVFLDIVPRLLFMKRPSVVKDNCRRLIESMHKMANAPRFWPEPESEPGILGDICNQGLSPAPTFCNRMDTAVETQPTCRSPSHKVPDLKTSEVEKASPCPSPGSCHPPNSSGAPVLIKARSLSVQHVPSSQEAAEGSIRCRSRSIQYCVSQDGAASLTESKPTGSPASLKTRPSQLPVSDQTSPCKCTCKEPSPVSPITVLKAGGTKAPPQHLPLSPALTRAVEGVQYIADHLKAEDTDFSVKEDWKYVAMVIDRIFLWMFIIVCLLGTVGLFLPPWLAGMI
Sequence of Neuronal acetylcholine receptor subunit alpha-4/beta-2 (Mus musculus) (Q9ERK7 26-501 limits assumed): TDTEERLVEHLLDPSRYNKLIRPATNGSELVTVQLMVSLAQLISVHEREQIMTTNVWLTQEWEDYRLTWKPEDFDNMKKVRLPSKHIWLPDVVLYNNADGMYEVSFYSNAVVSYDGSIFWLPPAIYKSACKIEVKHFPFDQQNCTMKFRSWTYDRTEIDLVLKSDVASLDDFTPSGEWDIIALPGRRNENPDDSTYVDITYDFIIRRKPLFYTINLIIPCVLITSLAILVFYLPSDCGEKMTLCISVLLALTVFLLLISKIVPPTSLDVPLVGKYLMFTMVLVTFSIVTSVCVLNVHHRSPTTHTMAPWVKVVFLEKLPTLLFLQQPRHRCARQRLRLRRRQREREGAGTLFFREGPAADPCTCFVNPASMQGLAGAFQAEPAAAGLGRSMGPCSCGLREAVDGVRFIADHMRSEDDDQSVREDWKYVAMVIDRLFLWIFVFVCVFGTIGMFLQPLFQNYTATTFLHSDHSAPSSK
Sequence of Neuronal acetylcholine receptor subunit alpha-4/beta-2 (Q9ERK7 whole entry): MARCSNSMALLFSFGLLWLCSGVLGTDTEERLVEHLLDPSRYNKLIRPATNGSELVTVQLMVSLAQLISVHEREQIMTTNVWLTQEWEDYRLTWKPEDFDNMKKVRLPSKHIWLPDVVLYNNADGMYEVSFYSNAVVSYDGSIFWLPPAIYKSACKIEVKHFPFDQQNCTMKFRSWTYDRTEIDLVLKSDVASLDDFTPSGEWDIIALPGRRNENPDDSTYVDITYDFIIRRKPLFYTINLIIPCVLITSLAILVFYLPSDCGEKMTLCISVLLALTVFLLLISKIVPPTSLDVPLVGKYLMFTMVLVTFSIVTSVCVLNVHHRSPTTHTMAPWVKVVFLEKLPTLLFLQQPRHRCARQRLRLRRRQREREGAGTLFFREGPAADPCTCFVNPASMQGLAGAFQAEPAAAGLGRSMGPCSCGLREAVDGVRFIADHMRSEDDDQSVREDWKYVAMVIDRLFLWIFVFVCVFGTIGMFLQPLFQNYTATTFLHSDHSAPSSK
Sequence of Neuronal acetylcholine receptor subunit alpha-4/beta-2 (O70174 whole entry): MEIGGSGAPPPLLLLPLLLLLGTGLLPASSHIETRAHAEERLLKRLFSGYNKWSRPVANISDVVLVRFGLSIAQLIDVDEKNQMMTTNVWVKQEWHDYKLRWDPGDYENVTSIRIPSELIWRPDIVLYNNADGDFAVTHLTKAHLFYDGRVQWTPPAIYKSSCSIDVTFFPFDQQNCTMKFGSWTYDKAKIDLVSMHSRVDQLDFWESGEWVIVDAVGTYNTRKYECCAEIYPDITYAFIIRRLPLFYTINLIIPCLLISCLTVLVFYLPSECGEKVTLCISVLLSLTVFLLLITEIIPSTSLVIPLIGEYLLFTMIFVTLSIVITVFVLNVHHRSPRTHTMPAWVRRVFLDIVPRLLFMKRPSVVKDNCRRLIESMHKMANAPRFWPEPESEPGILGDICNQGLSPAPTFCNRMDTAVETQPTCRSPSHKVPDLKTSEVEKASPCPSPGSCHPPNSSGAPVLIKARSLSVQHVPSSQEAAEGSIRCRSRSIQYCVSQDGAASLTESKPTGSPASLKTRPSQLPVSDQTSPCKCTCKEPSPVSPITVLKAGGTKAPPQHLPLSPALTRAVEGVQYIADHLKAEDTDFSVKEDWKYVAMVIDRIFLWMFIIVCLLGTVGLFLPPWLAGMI

`CN1CCN(C(=O)N(C)C)CC1` showed a Ki [1] of 30 µM, a Ki ([2]; read-out: Ki) of 50 µM and a Ki ([3]; read-out: Ki) of 50 µM.
In the case of `CCNC(=O)N1CCN(C)CC1`, the EC50 [4] is reported as greater than 1000 µM, the pEC50 [4] is reported as less than 3 and the Activity [5] is reported as “Active”. The Ki [1] was 10 µM, the Ki ([2]; read-out: Ki) was 100 µM and the Ki ([3]; read-out: Ki) was 100 µM.
`CNC(=S)N1CCN(C)CC1` was tested, and the Ki [1] was 19 µM, the Ki ([2]; read-out: Ki) was 500 µM and the pKi [3] was less than 3. The Ki ([3]; read-out: Ki) was greater than 1000 µM.
For `CCNC(=S)N1CCN(C)CC1`, the Activity [5] was “Active”, the Ki [1] was 5.8 µM and the Ki ([2]; read-out: Ki) was 300 µM. It also gave a pKi [3] of less than 3, a Ki ([3]; read-out: Ki) greater than 1000 µM and an EC50 [6] of 100 µM.
For `CN(C)C(=O)C1CCNCC1`, the Ki [1] was greater than 1000 µM, the pKi ([1]; hek293) was less than 3 and the pKi ([2]; hek293) was less than 3. It also gave a Ki ([2]; read-out: Ki) greater than 1000 µM, a pKi [3] of less than 3 and a Ki ([3]; read-out: Ki) greater than 1000 µM.
`CN1CCCN(C(=O)N(C)C)CC1` gave a Ki [1] of 50 µM, a Ki ([2]; read-out: Ki) of 300 µM and a Ki ([3]; read-out: Ki) of 300 µM.
`CN(C)C(=O)N1CCCNCC1` showed a Ki [1] of 11 µM, a Ki ([2]; read-out: Ki) of 50 µM and a Ki ([3]; read-out: Ki) of 300 µM.
`CC(CCOC(=O)N(C)C)N(C)C` (configuration not stated) gave a Ki ([2]; read-out: pKi (converted)) of 0.02 µM and a Ki ([3]; read-out: pKi (converted)) of 0.02 µM.
`CC(CCOC(=O)N1CCCC1)N(C)C` (configuration not stated) showed an EC50 [7] of 7.1 µM.
Compound `CN(C)C(=O)OC[C@H]1C[C@H]1N` (racemic) has a Ki [1] of 13 µM, a Ki ([2]; read-out: Ki) of 100 µM and a Ki ([3]; read-out: Ki) of 300 µM.
`CN(C)C(=O)OC[C@H]1C[C@@H]1N(C)C` (racemic) showed a Ki [1] of 100 µM, a Ki ([2]; read-out: Ki) of 1000 µM and a Ki ([3]; read-out: Ki) of 1000 µM.
`CNC(=O)OC[C@H]1C[C@@H]1N(C)C.O=C(O)C(=O)O` (racemic) was tested, and the Ki [1] was 300 µM, the Ki ([2]; read-out: Ki) was 1000 µM and the pKi [3] was less than 3. For the same compound, the Ki ([3]; read-out: Ki) was greater than 1000 µM.
`CN(C)C(=O)OC[C@H]1C[C@H]1N(C)C` (racemic) was tested, and the Activity [8] was “Active”, the Activity [5] was “Active” and the Ki [1] was 1.5 µM. For the same compound, the Ki ([2]; read-out: Ki) was 14 µM and the Ki ([3]; read-out: Ki) was 14 µM.
`CNC(=O)OC[C@H]1C[C@H]1N(C)C` (racemic) was tested, and the Activity [8] was “Active”, the Activity [5] was “Active” and the Ki [1] was 2.1 µM. For the same compound, the Ki ([2]; read-out: Ki) was 30 µM and the Ki ([3]; read-out: Ki) was 50 µM.
With `CN(C)C(=O)N1CCC(N(C)C)C1` (racemic) the Ki [1] was 6.4 µM, the Ki ([2]; read-out: Ki) was 2.3 µM and the Ki ([3]; read-out: Ki) was 6.4 µM. It also gave an EC50 [6] of 32 µM and an EC50 [7] of 10 µM.
`CCNC(=O)N1CCC(N(C)C)C1` (racemic) was tested, and the Activity [5] was “Active”, the Ki [1] was 5.7 µM and the Ki ([2]; read-out: Ki) was 30 µM. For the same compound, the Ki ([3]; read-out: Ki) was 30 µM and the EC50 [6] was 100 µM.
For `CNC(=S)N1CCC(N(C)C)C1` (racemic), the EC50 [4] was greater than 1000 µM, the pEC50 [4] was less than 3 and the Activity [5] was “Active”. The Ki [1] was 2.3 µM, the Ki ([2]; read-out: Ki) was 100 µM and the Ki ([3]; read-out: Ki) was 300 µM.
For `CCNC(=S)N1CCC(N(C)C)C1` (racemic), the EC50 [4] was greater than 1000 µM, the pEC50 [4] was less than 3 and the Activity [5] was “Active”. For the same compound, the Ki [1] was 1.2 µM, the Ki ([2]; read-out: Ki) was 300 µM and the pKi [3] was less than 3. For the same compound, the Ki ([3]; read-out: Ki) was greater than 1000 µM.
